Results on 13 compounds are retold here after patent publication US20260109721A1, “IONIZABLE CATIONIC LIPIDS INCORPORATING SILICON: SYNTHESIS AND LNP FORMULATION” (priority 2023, published 2026).

Each structure is given as a SMILES string. Like-named read-outs stand apart in the source and are kept apart here.

Data set [1] deals with HeLa cells. Put plainly: Transfection efficiency with Luciferase (SecNLuc) mRNA, Nano-Glo assay (Method A). It counts as cell-based. As to conditions: Luc mRNA, 24 h, luminescence; for Transfection 10 ng mRNA: 10 ng mRNA/well; for Transfection 50 ng mRNA: 50 ng mRNA/well; for Transfection 100 ng mRNA: 100 ng mRNA/well. As for the experimental part:
(§1) The synthesized lipids were tested in term of in vitro transfection efficacy and toxicity on HeLa cells. In order to perform the mentioned biological tests, appropriate LNPs had to be formulated from the synthesized lipids. The formulation technique was different in Method A and B. The particle size, polydispersity index (PDI) and zeta potential of resulting LNPs were determined by means of Dynamic Light Scattering technique (DLS). Prior to biological testing the encapsulation efficiency (EE) of the loaded LNPs was determined by using RiboGreen RNA assay. In case of Method A Luc mRNA while in case of Method B GFP mRNA was transfected into the cells. In parallel with the transfection experiments, toxicity of the investigated LNPs was determined, in case of Method A resazurin assay while in case of Method B MTT assay was used. Additionally, the toxicity of the lipids was investigated on HepG2 cells and IC50 values were determined.
• 1. Prepare mRNA solution by adding 100 ng mRNA (SecNLuc, #P009024, RiboPro) to 5 μl Opti-MEM • multiply by number of wells, include different concentrations and add 10% extra • a standard set-up we use is 100 ng-50 ng-10 ng mRNA/well in triplicate, which would need […] mRNA (includes 10% extra)
• 2. (If applicable) Prepare different concentrations in Opti-MEM (for instance 100/50/10 ng). • 3. Add 10 μl to each well and mix carefully by pipetting. • 4. Mix by swirling the plate horizontally at modest speed. Reverse in direction 3 times. • 5. Incubate for 24 hours (incubator).
This protocol is applied to measure luciferase activity for secreted NanoLuc and is based on the protocol by Promega (Nano-Glo® Luciferase Assay System #N1110-1150). The protocol is designed for a 384-wells plate, but volumes can be changed accordingly for other plates.
• 1. Plate cells (HeLa) in 96-well plate, grow until 80% confluent and transfect with SecNanoLuc mRNA and incubate for the desired period (24 h). • 2. After incubation, the translated protein is accumulated in the medium. Transfer medium to a new plate or tubes. • 3. Transfer 12 μl of each sample to a black-walled, clear-bottom 384-well plate • Black-walled plates are important to prevent shine-through of luminescence from other wells; alternatively, multiple wells between samples can be left empty. • 4. Set-up plate reader • 5. Prepare the desired amount of Nano-Glo® Luciferase Assay Reagent by combining one volume of Nano-Glo® Luciferase Assay Substrate with 50 volumes of Nano-Glo® Luciferase Assay Buffer: • a. composition: 100 mM MES pH 6; 1 mM EDTA; […]; 150 mM KCl; 1 mM DTT; 35 mM Thiourea; • b. briefly spin tubes containing substrate in a microcentrifuge before use. • 6. Add and mix (by pipetting) 12 μl Nano-Glo® Luciferase Assay Reagent per well • Wait approximately 3 minutes before measuring luminescence. […] Measure luminescence in plate reader using standard protocol luciferase (this includes mixing sample in plate reader)

The test system of data set [2] is HeLa cells. Put plainly: Cell viability assessment with resazurin assay (Method A). The class given is cell-based. As for the experimental part:
as §1
This protocol is used to determine the metabolic activity of cells as a measure for cell viability after exposure to potentially toxic substances. Resazurin is converted in mitochondria by reduction to resorufin, which has a much higher fluorescence at ˜600 nm compared to unconverted resazurin. A lower amount/percentage of conversion is correlated with reduced cellular metabolism and indirectly to cellular death and toxicity. Care must be taken with interpretation of the read-out, as 50% reduction in resazurin conversion may mean 50% reduction of cellular metabolism of 100% alive cells, or 50% of cells dead, and any combination in between.
• 1. Prepare 0.25 mg/ml stock solution resazurin in fresh cell culture medium. Resazurin is auto-reducing over time in solution, especially in medium, and fresh stocks should be prepared every 2-3 days. Stocks should be stored at 4° C. and protected from light. For HeLa cells, DMEM/F12 with 10% FCS is used. • 2. Dilute stock solution 10× in fresh cell culture medium to 0.025 mg/ml->ready for application on cells. For HeLa cells, DMEM/F12 with 10% FCS is used. • 3. Collect 96-well plate and replace cell-culture spent medium with 100 μl per well resazurin solution. Add some resazurin solution for background measurement in wells not containing cells. • 4. Incubate for 50 minutes in incubator at 37° C., 5% CO2, 95% RH. • 5. Transfer resazurin solution to a fresh 96- or 384-well plate. • 6. Measure in plate reader using 540/25 nm (excitation) and 610/40 nm (emission) using standard settings (PTM low/OD-1.0). • 7. Subtract the average background measurement from all samples. Set the average of the negative controls (well receiving OptiMEM only during transfection) to 100% and express all values as percentage of the control activity. Typically, at lower levels of treatment, elevation of metabolic activity is shown, whereas for toxic substances, at toxic concentrations sigmoidal curves can be obtained, with lower activity indicating higher toxicity.
(In general: Resazurin is reduced to fluorescent resorufin, in cell work by metabolically active cells.)

For the compound `CCCCCCCCC(CCCCCC)C(=O)OCCCCCCN(CCCCO)CCCCCCOC(=O)C(CCCCCC)CCCCCCCC` (stereo not shown) [ALC-0315, reference compound], in the data set with HeLa cells [1], the “Transfection 10 ng mRNA” value stood at 2.38E+06, the “Transfection 50 ng mRNA” value amounted to 1.22E+07 and the “Transfection 100 ng mRNA” value is reported as 9.34E+06. For the same compound, the “Cell Viability % (Average metabolic rate over all doses, Resazurin)” value (“Cell Viability %” for short) with HeLa cells [2] was found to be 97%.

In the case of `CCCCC/C=C\C/C=C\CCCCCCCCOC(CCCCCN(CCO)CCO)O[Si](C)(C)OCCCCCCCC/C=C\C/C=C\CCCCC` (stereo not shown) [Example 39, (21Z,24Z)-3-(2-hydroxyethyl)-11,11-dimethyl-9-(((9Z,12Z)-octadeca-9,12-dien-1-yl)oxy)-10,12-dioxa-3-aza-11-silatriaconta-21,24-dien-1-ol], in the data set with HeLa cells [1], the “Transfection 10 ng mRNA” value is reported as 1.46E+05, the “Transfection 50 ng mRNA” value is reported as 1.40E+06 and the “Transfection 100 ng mRNA” value is recorded as 4.78E+06. Moreover, the “Cell Viability %” value in the data set with HeLa cells [2] (human) was determined as 102%.

As to `CCCCC/C=C\C/C=C\CCCCCCCCO[Si](C)(C)OC(CCCCCCC/C=C\C/C=C\CCCCC)OCCCCCCN(CCO)CCO` (stereo not shown) [Example 40, (23Z,26Z)-11-((8Z,11Z)-heptadeca-8,11-dien-1-yl)-3-(2-hydroxyethyl)-13,13-dimethyl-10,12,14-trioxa-3-aza-13-siladotriaconta-23,26-dien-1-ol], in the data set with HeLa cells [1], the “Transfection 10 ng mRNA” value is listed as 1.47E+05, the “Transfection 50 ng mRNA” value is reported as 2.13E+06 and the “Transfection 100 ng mRNA” value is listed as 8.09E+06. For the same compound, in the data set on HeLa cells [2] (human), the “Cell Viability %” value is listed as 100%.

Consider `CCCCCCCC/C=C\CCCCCCCCOC(CCCCCCCCCCCCCCC)O[Si](C)(C)OCCCCCCN(CCO)CCO` (stereo not shown) [Example 41, (Z)-3-(2-hydroxyethyl)-11,11-dimethyl-13-pentadecyl-10,12,14-trioxa-3-aza-11-siladotriacont-23-en-1-ol], for which, in the data set on HeLa cells [1], the “Transfection 10 ng mRNA” value is 3.11E+05, the “Transfection 50 ng mRNA” value turned out to be 3.64E+06 and the “Transfection 100 ng mRNA” value turned out to be 1.03E+07. Further, the “Cell Viability %” value with HeLa cells [2] (human) is reported as 98%.

Regarding `CCCCCCCC/C=C\CCCCCCCC(OCCCCCCCCCCCCCCCC)O[Si](C)(C)OCCCCCCN(CCO)CCO` (stereo not shown) [Example 42, (Z)-13-(heptadec-8-en-1-yl)-3-(2-hydroxyethyl)-11,11-dimethyl-10,12,14-trioxa-3-aza-11-silatriacontan-1-ol], in the data set with HeLa cells [1], the “Transfection 10 ng mRNA” value was 6.16E+04, the “Transfection 50 ng mRNA” value is given as 1.32E+06 and the “Transfection 100 ng mRNA” value is reported as 5.53E+06. Moreover, the “Cell Viability %” value in the data set on HeLa cells [2] (human) was determined as 98%.

For the compound `CCCCC/C=C\C/C=C\CCCCCCCCOC(CCCCCCCCCCCCCCC)O[Si](C)(C)OCCCCCCN(CCO)CCO` (stereo not shown) [Example 43, (23Z,26Z)-3-(2-hydroxyethyl)-11,11-dimethyl-13-pentadecyl-10,12,14-trioxa-3-aza-11-siladotriaconta-23,26-dien-1-ol], in the data set on HeLa cells [1], the “Transfection 10 ng mRNA” value was found to be 4.81E+05, the “Transfection 50 ng mRNA” value turned out to be 5.50E+06 and the “Transfection 100 ng mRNA” value is listed as 1.32E+07. Also, the “Cell Viability %” value in the data set with HeLa cells [2] (human) was 98%.

As for `CCCCC/C=C\C/C=C\CCCCCCCC(OCCCCCCCCCCCCCCCC)O[Si](C)(C)OCCCCCCN(CCO)CCO` (stereo not shown) [Example 44, 13-((8Z,11Z)-heptadeca-8,11-dien-1-yl)-3-(2-hydroxyethyl)-11,11-dimethyl-10,12,14-trioxa-3-aza-11-silatriacontan-1-ol], in the data set on HeLa cells [1], the “Transfection 10 ng mRNA” value was determined as 1.57E+05, the “Transfection 50 ng mRNA” value stood at 2.08E+06 and the “Transfection 100 ng mRNA” value is 7.09E+06. Besides, in the data set on HeLa cells [2] (human), the “Cell Viability %” value is on record as 94%.

Take `CCCCC/C=C\C/C=C\CCCCCCCC(OCCCCCCCC/C=C\CCCCCCCC)O[Si](C)(C)OCCCCCCN(CCO)CCO` (stereo not shown) [Example 45, (Z)-13-((8Z,11Z)-heptadeca-8,11-dien-1-yl)-3-(2-hydroxyethyl)-11,11-dimethyl-10,12,14-trioxa-3-aza-11-siladotriacont-23-en-1-ol]: in the data set with HeLa cells [1], the “Transfection 10 ng mRNA” value was 1.80E+05, the “Transfection 50 ng mRNA” value stood at 2.42E+06 and the “Transfection 100 ng mRNA” value came to 7.94E+06. Further, in the data set on HeLa cells [2] (human), the “Cell Viability %” value amounted to 96%.

Take `CCCCC/C=C\C/C=C\CCCCCCCCOC(CCCCCCC/C=C\CCCCCCCC)O[Si](C)(C)OCCCCCCN(CCO)CCO` (stereo not shown) [Example 46, (23Z,26Z)-13-((Z)-heptadec-8-en-1-yl)-3-(2-hydroxyethyl)-11,11-dimethyl-10,12,14-trioxa-3-aza-11-siladotriaconta-23,26-dien-1-ol]: in the data set with HeLa cells [1], the “Transfection 10 ng mRNA” value is 1.46E+05, the “Transfection 50 ng mRNA” value is 1.93E+06 and the “Transfection 100 ng mRNA” value is 8.16E+06. The “Cell Viability %” value with HeLa cells [2] (human) was found to be 95%.

On to `CCCCCCCC/C=C\CCCCCCCCOC(CCCCCCC/C=C\CCCCCCCC)O[Si](C)(C)OCCCCCCN(CCO)CCO` (stereo not shown) [Example 47, (Z)-13-((Z)-heptadec-8-en-1-yl)-3-(2-hydroxyethyl)-11,11-dimethyl-10,12,14-trioxa-3-aza-11-siladotriacont-23-en-1-ol], for which, in the data set with HeLa cells [1], the “Transfection 10 ng mRNA” value was found to be 3.37E+04, the “Transfection 50 ng mRNA” value is on record as 1.29E+06 and the “Transfection 100 ng mRNA” value is given as 7.06E+06. The “Cell Viability %” value in the data set on HeLa cells [2] (human) is 89%.

As to `CCCCC/C=C\C/C=C\CCCCCCCCOC(CCCCCCC/C=C\C/C=C\CCCCC)O[Si](C)(C)OCCCCCCN(CCO)CCO` (stereo not shown) [Example 48, (23Z,26Z)-13-((8Z,11Z)-heptadeca-8,11-dien-1-yl)-3-(2-hydroxyethyl)-11,11-dimethyl-10,12,14-trioxa-3-aza-11-siladotriaconta-23,26-dien-1-ol], in the data set on HeLa cells [1], the “Transfection 10 ng mRNA” value came to 5.52E+02, the “Transfection 50 ng mRNA” value is listed as 1.65E+03 and the “Transfection 100 ng mRNA” value is listed as 1.82E+03. The “Cell Viability %” value with HeLa cells [2] (human) came out at 99%.

`CCCCCCCCCCCCCCCCOC(CCCCCCCCCCCCCCC)O[Si](C)(C)OCCCCCCN(CCO)CCO` (stereo not shown) [Example 49, 3-(2-hydroxyethyl)-11,11-dimethyl-13-pentadecyl-10,12,14-trioxa-3-aza-11-silatriacontan-1-ol]: in the data set on HeLa cells [1], the “Transfection 10 ng mRNA” value is on record as 1.35E+05, the “Transfection 50 ng mRNA” value came out at 6.74E+05 and the “Transfection 100 ng mRNA” value was found to be 1.20E+06. In the data set on HeLa cells [2] (human), the “Cell Viability %” value is 93%.

Take `CCCCCCCC/C=C\CCCCCCCC(OCC(CCCCCC)CCCCCCCC)O[Si](C)(C)OCCCCCCN(CCO)CCO` (stereo not shown) [Example 50, (Z)-13-(heptadec-8-en-1-yl)-16-hexyl-3-(2-hydroxyethyl)-11,11-dimethyl-10,12,14-trioxa-3-aza-11-silatetracosan-1-ol]: in the data set with HeLa cells [1], the “Transfection 10 ng mRNA” value was 5.85E+04, the “Transfection 50 ng mRNA” value is on record as 2.12E+06 and the “Transfection 100 ng mRNA” value was 8.19E+06. Moreover, the “Cell Viability %” value with HeLa cells [2] (human) amounted to 98%.
